The text below walks through data of patent publication US7671212B2, “Isothiazole dioxides as CXC- and CC-chemokine receptor ligands” (Schering Corporation, priority 2003, dated 2010).

The target of assay [1] is T1, hCXCR2 (Homo sapiens, UniProt P25025).
T1 construct: purchased Biosignal / Biosignal Packard; host or cells: CHO
T1 sequence (P25025 1-360): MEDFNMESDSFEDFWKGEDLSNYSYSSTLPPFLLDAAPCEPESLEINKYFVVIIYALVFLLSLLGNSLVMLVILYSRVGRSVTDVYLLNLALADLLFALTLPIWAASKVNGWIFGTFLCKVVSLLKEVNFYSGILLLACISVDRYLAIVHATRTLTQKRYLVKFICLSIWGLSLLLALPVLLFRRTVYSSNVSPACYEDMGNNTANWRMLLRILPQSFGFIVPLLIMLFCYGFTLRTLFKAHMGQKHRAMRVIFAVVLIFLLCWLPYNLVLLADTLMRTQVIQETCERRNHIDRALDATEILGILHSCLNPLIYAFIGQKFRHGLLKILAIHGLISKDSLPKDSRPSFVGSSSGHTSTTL
The assay can be described thus: CXCR2 SPA assay ([125I]-IL-8 binding, incl. alternative 50 μl and 200 μl protocols). Particulars: hCXCR2-CHO membranes. On the procedure: For each well of a 96 well plate, a reaction mixture of 4 μg hCXCR2-CHO overexpressing membranes (Biosignal) and 200 μg/well WGA-SPA beads (Amersham) in 100 μl was prepared in CXCR2 assay buffer (25 mM HEPES, pH 7.4, 2 mM CaCl2, 1 mM MgCl2). A 0.4 nM stock of ligand, [125I]-IL-8 (NEN), was prepared in the CXCR2 assay buffer. 20× stock solutions of test compounds were prepared in DMSO (Sigma). A 6× stock solution of GRO-α (R&D) was prepared in CXCR2 assay buffer. The above solutions were added to a 96-well assay plate (PerkinElmer or Corning) as follows: 10 μl test compound or DMSO, 40 ul CXCR2 assay buffer or GRO-α stock, 100 μl of reaction mixture, 50 μl of ligand stock (Final [Ligand]=0.1 nM). When 40× stock solutions of test compounds in DMSO were prepared, then the above protocol was used except instead 5 μl test compound or DMSO and 45 μl CXCR2 assay buffer were used.
Alternative CXCR2 SPA Assay
Protocol Using the CXCR2 50 μl Assay
For each 50 μl reaction, a working stock of 0.031 μg/μl hCXCR2-CHO over-expressing membranes with a specific activity of 0.4 pmol/mg (Biosignal Packard) and 2.5 μg/μl WGA-SPA beads (Perkin Elmer Life Sciences) was prepared in CXCR2 assay buffer (25 mM HEPES, pH 7.4, 2.0 mM CaCl2, 1 mM MgCl2) (Sigma). This mixture was incubated on ice for 5 minutes. A 0.50 nM stock of ligand, [^125I]-IL-8 (Perkin Elmer Life Sciences), was prepared in the CXCR2 assay buffer. Test compounds were first serially diluted by half-logs in DMSO (Sigma) and then diluted 13.3-fold in CXCR2 assay buffer. The above solutions were added to a Corning NBS (non-binding surface) 96-well assay plate as follows: 20 μl test compound or 7.5% DMSO (final [DMSO]=3%), 20 μl of membranes and SPA bead mixture (final [membrane]=0.625 μg/reaction; final [SPA bead]=50 μg/reaction), 10 μl of ligand stock (final [^125I-IL-8]=0.10 nM). The assay plates were incubated for 2 hours before cpm/well were determined in a Microbeta Trilux counter (Perkin Elmer Life Sciences). IC50 values were quantified using nonlinear regression analysis in GraphPad Prism.
Protocol Using the CXCR2 200 μl Assay
For each 200 μl reaction, a working stock of 0.02 μg/μl hCXCR2-CHO over-expressing membranes with a specific activity of 0.6 pmol/mg (Biosignal Packard) and 2 μg/μl WGA-SPA beads (Perkin Elmer Life Sciences) was prepared in CXCR2 assay buffer (25 mM HEPES, pH 7.4, 2.0 mM CaCl2, 1 mM MgCl2) (Sigma). This mixture was incubated on ice for 5 minutes. A 0.40 nM stock of ligand, [^125I]-IL-8 (Perkin Elmer Life Sciences), was prepared in the CXCR2 assay buffer. Test compounds were first serially diluted by half-logs in DMSO (Sigma) and then diluted […] in CXCR2 assay buffer. The above solutions were added to a Corning NBS (non-binding surface) 96-well assay plate as follows: 50 μl test compound or 10% DMSO (final [DMSO]=2.5%), 100 μl of membranes and SPA bead mixture (final [membrane]=2 μg/reaction; final [SPA bead]=200 μg/reaction), 50 μl of ligand stock (final [^125I-IL-8]=0.10 nM). The assay plates were incubated for 2 hours before cpm/well were determined in a Microbeta Trilux counter (Perkin Elmer Life Sciences). IC50 values were quantified using nonlinear regression analysis in GraphPad Prism.

Assay [2] concerns the target T2, hCXCR1 (Homo sapiens, UniProt P25024).
T2 construct: purchased Biosignal / Biosignal Packard; Euroscreen (alternative protocol); host or cells: CHO
T2 sequence (P25024 1-350): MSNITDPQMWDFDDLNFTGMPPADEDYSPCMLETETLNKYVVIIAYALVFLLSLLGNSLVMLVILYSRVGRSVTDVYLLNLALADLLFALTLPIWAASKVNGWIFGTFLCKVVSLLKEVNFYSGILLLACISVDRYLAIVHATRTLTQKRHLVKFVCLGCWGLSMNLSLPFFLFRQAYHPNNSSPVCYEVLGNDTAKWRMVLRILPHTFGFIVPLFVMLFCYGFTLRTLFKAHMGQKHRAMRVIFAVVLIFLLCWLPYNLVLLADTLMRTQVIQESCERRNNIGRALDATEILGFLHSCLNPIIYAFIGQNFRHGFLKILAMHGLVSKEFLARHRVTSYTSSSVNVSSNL
Nature of the assay: CXCR1 SPA assay ([125I]-IL-8 binding, incl. alternative Biosignal Packard and Euroscreen membrane protocols). Particulars: hCXCR1-CHO membranes. The procedure:
For each well of a 96 well plate, a reaction mixture of 10 μg hCXCR1-CHO overexpressing membranes (Biosignal) and 200 μg/well WGA-SPA beads (Amersham) in 100 μl was prepared in CXCR1 assay buffer (25 mM HEPES, pH 7.8, 2 mM CaCl2, 1 mM MgCl2, 125 mM NaCl, 0.1% BSA) (Sigma). A 0.4 nM stock of ligand, [125I]-IL-8 (NEN) was prepared in the CXCR1 assay buffer. 20× stock solutions of test compounds were prepared in DMSO (Sigma). A 6× stock solution of IL-8 (R&D) was prepared in CXCR2 assay buffer. The above solutions were added to a 96-well assay plate (PerkinElmer) as follows: 10 μl test compound or DMSO, 40 μl CXCR1 assay buffer or IL-8 stock, 100 μl of reaction mixture, 50 μl of ligand stock (Final [Ligand]=0.1 nM).
Alternative CXCR1 SPA Assay
Protocol Using CXCR1-Expressing Membranes from Biosignal Packard
For each 50 μl reaction, a working stock of 0.25 μg/μl hCXCR1-CHO over-expressing membranes with a specific activity of 0.05 pmol/mg (Biosignal Packard) and 25 μg/μl WGA-SPA beads (Perkin Elmer Life Sciences) was prepared in CXCR1 assay buffer (25 mM HEPES, pH 7.8, 0.1 mM CaCl2, 1 mM MgCl2, 100 mM NaCl) (Sigma). […] The assay plates were incubated for 4 hours before cpm/well were determined in a Microbeta Trilux counter (Perkin Elmer Life Sciences). IC50 values were quantified using nonlinear regression analysis in GraphPad Prism. […]

For assay [3], the target named is T3, CCR7 (Homo sapiens, UniProt P32248).
T3 construct: expressed in transfected cells; host or cells: Ba/F3
T3 sequence (P32248 25-378): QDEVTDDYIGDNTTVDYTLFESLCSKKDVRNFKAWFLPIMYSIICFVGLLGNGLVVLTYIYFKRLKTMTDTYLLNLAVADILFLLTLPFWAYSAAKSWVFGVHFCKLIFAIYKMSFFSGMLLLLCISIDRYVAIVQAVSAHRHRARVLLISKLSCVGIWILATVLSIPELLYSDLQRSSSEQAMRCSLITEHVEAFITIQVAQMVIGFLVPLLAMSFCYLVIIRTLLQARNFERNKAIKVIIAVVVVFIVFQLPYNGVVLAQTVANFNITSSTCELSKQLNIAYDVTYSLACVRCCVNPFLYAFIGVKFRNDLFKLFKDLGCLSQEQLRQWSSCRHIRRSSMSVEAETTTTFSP
The assay can be described thus: CCR7 [35S]GTPγS exchange assay (SPA, Ba/F3-CCR7 membranes, MIP-3β). As to conditions: 2 nM MIP-3β. It counts as biochemical. The procedure: CCR7 Membrane Preparation.
Ba/F3-CCR7 membranes were prepared as previously described (Hipkin et al., J. Biol. Chem., 272, 1997, 13869-76). Cells were pelleted by centrifugation, incubated in homogenization buffer (10 mM Tris-HCl, 5 mM EDTA, 3 mM EGTA, pH 7.6) and 1 μM PMSF for 30 min. on ice. The cells were then lysed with a Dounce homogenizer using stirrer type RZR3 polytron homogenizer (Caframo, Wiarton, Ont.) with 12 strokes at 900 RPM. The intact cells and nuclei were removed by centrifugation at 500×g for 5 min. The cell membranes in the supernatant were then pelleted by centrifugation at 100,000×g for 30 min. The membranes were then resuspended in glygly buffer (20 mM glycylglycine, 1 mM MgCl2, 250 mM sucrose, pH 7.2), aliquoted, quick frozen and stored at −80° C.
CCR7 [^35S]GTPγS Exchange Assay.
The exchange of guanosine 5′-[γ-^35S]triphospate ([^35S]GTPγS, triethylammonium salt; specific activity=1250 Ci/mmol; NEN Boston, Mass.) was measured using a scintillation proximity assay (SPA) as previously described (Cox, et. al., Mol. Pharmacol., 59, 2001, 707-15). […] Membrane-bound [^35S]GTPγS was measured using a 1450 Microbeta Trilux counter (Wallac, Gaithersburg, Md.).
(In general: GTPγS resists hydrolysis and so accumulates on activated G proteins.)

Values joined by “and” are separate entries in the source; they are usually repeats but may differ in a detail not shown here. Equal values may be shown once.

One may read the Ki as the equilibrium dissociation constant of an inhibitor or competing ligand from its target. A low value points to tighter binding. As to `CCOC(=O)C1=C(Nc2cccc(C(=O)N(C)C)c2O)C(N[C@@H](c2cc(C)c(C)o2)C(C)C)=NS1(=O)=O` [Example 5], the inhibition constant Ki in assay [1] lay within 7.6 to 51 nM.

Turning to `CC[C@@H](NC1=NS(=O)(=O)C=C1Nc1cccc(C(=O)N(C)C)c1O)c1ccc(C)o1` [Example 2], the Ki in assay [1] is 7.6 nM and 7.6 to 51 nM.

Take `CCOC(=O)C1=C(N[C@H](CC)c2ccccc2)C(Nc2cccc(C(=O)N(C)C)c2O)=NS1(=O)=O` [Example 3]: the Ki in assay [1] is 7.6 to 51 nM.

Regarding `Cc1cc([C@H](NC2=NS(=O)(=O)C=C2Nc2cccc(C(=O)N(C)C)c2O)C(C)C)oc1C` [Example 6], the Ki in assay [2] is 345 nM; in assay [1], 19 nM and 7.6 to 51 nM.

In assay [1], `CCOC(=O)C1=C(Nc2cccc(C(=O)N(C)C)c2O)C(N[C@H](CC)c2ccc(C)o2)=NS1(=O)=O` [Example 1] came in with a Ki of 7.6 to 51 nM.

The EC50 is the concentration at which the effect is half-maximal. A high value points to a need for much substance. Consider `CCOC(=O)C1=C(Nc2cccc(C(=O)N(C)C)c2O)C(N[C@H](CC)c2cc(C(C)C)co2)=NS1(=O)=O` [Example 162], for which, in assay [3], the EC50 was 9500 nM.

Turning to `CC[C@@H](NC1=CS(=O)(=O)N=C1Nc1cccc(C(=O)N(C)C)c1O)c1ccccc1` [Example 4], the Ki in assay [1] was 7.6 to 51 nM.
